According to US6562837B1, “Use of tetrahydroisoquinoline compounds for the treatment of septicemia” (Korea Institute of Science & Technology, priority 1998, dated 2003):

Key:
[1] = system: acute thrombosis in the pulmonary artery; assay: Acute thrombosis (collagen plus epinephrine i.v.) in mice, recovery from paralysis; type: in vivo
Protocol: A mixture of collagen (300:μg/kg) plus epinephrine (30:μg/kg) was injected into the tail vein of mice (ICR; […], the same mice were employed in all of the following experiments) to induce massive, acute thrombosis in the pulmonary artery. Thus, an acute thrombosis model, in which mice were paralyzed in 1-3 min after the injection and most of them died within 15 min was prepared. To investigate the effect of the compounds of Chemical Formulas 1 and 2 on the acute thrombosis, either of the compounds was orally administered to mice for 1 or 3 days. The intravenous injection of the mixture of collagen and epinephrine was conducted 1 hour after the final oral administration. An observation was taken to examine the mortality change and the recovery from the paralysis and the results are given in Tables 4 and 5, below.
Most of the mice were paralyzed within 1 min after the injection, following dilation of the pupils, difficult breathing, and convulsions. Most of the mice either died within 5 min or were subjected to paralysis for 15 min or longer. Only a few of them recovered from the paralysis.

[2] = system: thrombus formation in AVS tube; assay: Thrombus formation in arterio-venous shunt (AVS) tube in rats; type: in vivo
Protocol: An AVS tube was prepared. For this, a scalp vein set was cut into a length of 18 cm, and each end was connected to a 18G syringe needle while a 100% cotton thread 5 cm long was fixed to the center of the tube. Rats were anesthetized with ketamine (250 mg/kg) by injection (i.m.) and underwent laparotomy. An AVS tube filled with saline was installed between the abdominal aorta and the renal vein in such a way that its one syringe needle was inserted in the abdominal aorta and the other syringe needle was inserted in the renal vein. Blood was allowed to pass through the AVS tube so as to form thrombus on the cotton thread. After circulation of blood through the AVS tube for 15 min, the thread was taken out from the AVS tube. The weight of the thrombus formed on the cotton thread was determined by weighing the thread.

α-receptor = assay: Binding affinity to α-adrenoceptor, [3H]prazosin, rat cerebral cortical membrane
Protocol: For this, the cerebral cortex obtained from rats (Sprague-Dawley, 250±20 g; unless particularly mentioned, the same rats were used in the following experiments) was homogeneously mixed with a 20× buffer (50 mM Tris, 5 mM MgSO4, 1 mM EDTA, 1 mM ascorbic acid, pH 7.7) and then, centrifuged three times at 35,000×g for 15 min and the pellet was stored at −70° C. A solution of 5 mg of the pellet in 1 ml of the buffer was incubated, along with [^3H]prazosin (200 pM) and samples, at 25° C. for 30 min followed by adding 10 ml of a buffer (50 mM Tris, pH 7.7) to quench the binding reaction. The resulting solution was filtered through a Whatman GF/C glass microfiber filter which was then shaken for 2 hours while being completely submerged in a scintillation cocktail. The radioactivity was measured using a scintillation counter (Beckman, LS6500)

| Structure (SMILES) | Mice Recovered, Number ([1]; 50 mg/kg orally once for three successive days, recovered within 15 min) | Mice Recovered, % ([1]; 50 mg/kg orally once for three successive days, recovered within 15 min, control 20%) | Mice Recovered, Number ([1]; 50 mg/kg orally once, recovered from thrombotic paralysis within 15 min) | Mice Recovered, % ([1]; 50 mg/kg orally once, recovered within 15 min, control 17%) | % Inhibition of thrombus formation ([2]; 50 mg/kg orally once a day for successive three days) | Weight (mg) of thrombus ([2]; 50 mg/kg orally once a day for successive three days, control 42.67 ± 5.381) | % Inhibition of thrombus formation ([2]; 50 mg/kg orally once, first series, control 33.61 mg) | Weights (mg) of thrombus ([2]; 50 mg/kg orally once, first series, control 33.61 ± 7.620) | % Inhibition of thrombus formation ([2]; 50 mg/kg orally once, second series, control 39.54 mg) | Weights (mg) of thrombus ([2]; 50 mg/kg orally once, second series, control 39.54 ± 5.625) | Kd (α-receptor) |
| --- | --- | --- | --- | --- | --- | --- | --- | --- | --- | --- | --- |
| CC(=O)Oc1ccccc1C(=O)O [Aspirin, reference compound] | 11 | 55% | 32 | 52% | 12.4% | 37.37 ± 7.369 mg | 40.8% | 19.89 ± 7.213 mg | 36.3% | 25.18 ± 6.725 mg | – |
| COc1cc2nc(N3CCN(C(=O)c4ccco4)CC3)nc(N)c2cc1OC [prazosin, reference compound] | – | – | – | – | – | – | – | – | – | – | 134 ± 8.91 pM |
